Measurements reported in article PMC10874388, “Cyclic peptides discriminate BCL-2 and its clinical mutants from BCL-XL by engaging a single-residue discrepancy” (Nature Communications, 2024).
Several values for one entry are separate records, joined by “and”; a condition that tells them apart may be missing. Identical values can stand only once. Starred links: 1 amine or outer side, 2 acyl side, 3 side chain; linkers in the order of their positions; H or OH if unused. Positions of bridges follow the written chain, without caps; N, C: chain ends. Residues, ends and D or L forms follow the SMILES beside them. X1 = O=C(C[*:2])NCCNC(=O)c1ccc(C2=N[C@H](C(=O)[*:1])CS2)cc1

Legend:
Format in all cases: cell-based
RS4:11 cells = assay: Cell viability assay (CellTiter-Glo), RS4:11; conditions: RS4:11, single wells
Protocol: The cell lines Jurkat (TIB-152), El4 (TIB-39), Daudi (ccl-213), RS4:11 (crl-1873), A549 (ccl-185), HepG2 (hb-8065) and PANC-1 (crl-1469) were purchased from ATCC (American Type Culture Collection), and MGC-803 (C6582) was purchased from Beyotime (https://www.beyotime.com/product/C6582.htm). […] Daudi and RS4:11 cells were cultured in RPMI-1640 medium (HyClone, SH30809.01) and 10% FBS (Gibco, 10099-141), whereas HepG2, MGC-803 and PANC-1 cells were cultured in MDEM (HyClone, SH30243.01). Cells were maintained at 37 °C under a humidified, 5% (v/v) CO2-containing atmosphere.
Cell viability was measured using CellTiter-Glo® 2.0 Reagent (Promega, G9242). […] After different inhibitors were added into serum-free medium and cultured for 4 h (RS4:11 for 6 h), FBS were supplemented to 10% and then incubated totally for 24 h or 48 h. Finally, the IC50 values were calculated based on measurements using a microplate reader (Thermo, Varioskan LUX). Statistical analysis was performed using software GraphPad Prism 7.0.

Jurkat cells [1] = assay: Mitochondrial membrane potential (JC-1), flow cytometry and fluorescence microscopy
Protocol: For the mitochondrial membrane potential (ΔΨm) analysis, the mitochondrial membrane potential assay kit with JC-1 dye (Beyotime, C2006) was used according to the manufacturer’s protocol. […] The value of ΔΨm was expressed as the ratio of red fluorescence intensity over green fluorescence intensity. After treated with JC-1, fluorescence intensity of Jurkat cells was tested by flow cytometry (BD FACSAria Fusion) and fluorescence microscopy (NIKON Ti-E), respectively. All experiments were performed in triplicate. Statistical analysis was performed using software GraphPad Prism 7.0.

Jurkat cells [2] = assay: Apoptosis assay, Annexin V-FITC/PI staining and flow cytometry
Protocol: Jurkat cells were seeded to 6-well plates at a density of 4 ×10^5 cells per well. Cells were incubated in the presence of DMSO, venetoclax at 2.5 μM, cp1-TAT at 30 μM, cp2-TAT at 30 μM, or cp3-TAT at 20 μM in serum-free RPMI medium for 4 h. After being incubated totally for 24 h, cells were washed once with PBS and stained with 100 μL binding buffer containing 5 μL Annexin V-FITC and 10 μL PI for 15 min, followed by addition of 400 μL binding buffer to detect cell apoptosis with FCM (BD FACSAria Fusion). Statistical analysis was performed using software FlowJo V10 and GraphPad Prism 7.0.

[3] = Figure 6d, 4h, replicate values

## CC[C@H](C)[C@@H]1NC(=O)[C@@H]2CCCN2C(=O)[C@@H]2CSC(=N2)c2ccc(cc2)C(=O)NCCNC(=O)CSC[C@@H](C(=O)NCC(=O)N[C@@H](CO)C(=O)NCC(=O)N[C@@H](CO)C(=O)N[C@@H](CCCNC(=N)N)C(=O)N[C@@H](CCCCN)C(=O)N[C@@H](CCCCN)C(=O)N[C@@H](CCCNC(=N)N)C(=O)N[C@@H](CCCNC(=N)N)C(=O)N[C@@H](CCC(N)=O)C(=O)N[C@@H](CCCNC(=N)N)C(=O)N[C@@H](CCCNC(=N)N)C(=O)N[C@@H](CCCNC(=N)N)C(N)=O)NC(=O)[C@H](Cc2ccccc2)NC(=O)[C@H](CCC(=O)O)NC(=O)[C@H](CC(=O)O)NC(=O)[C@H](Cc2c[nH]c3ccccc23)NC(=O)[C@H](CCC(=O)O)NC(=O)[C@H](Cc2ccc(O)cc2)NC(=O)[C@H](CCCNC(=N)N)NC1=O [cp2-TAT] (PIRYEWDEFCGSGSRKKRRQRRR-NH2; linker N-10 via X1; C-terminus assumed)
RS4:11 cells; 0.0488281 uM
  raw luminescence reading: 377400 and 399400 and 472900 and 398600 and 396500 and 376600
RS4:11 cells; 0.0488281 uM, 0.0488281 µM
  inhibition rate: 9%
RS4:11 cells; 0.0976562 uM
  raw luminescence reading: 367900 and 411600 and 442500 and 406100 and 405700 and 384000
RS4:11 cells; 0.195312 uM
  raw luminescence reading: 397400 and 403000 and 448800 and 404500 and 392400 and 382800
RS4:11 cells; 0.390625 uM
  raw luminescence reading: 444700 and 450800 and 451700 and 438000 and 424700 and 412100
RS4:11 cells; 0.390625 uM, 0.390625 µM
  inhibition rate: -7.55% and -9% and -6% and -2.71% and 0.339%
RS4:11 cells; 0.78125 uM
  raw luminescence reading: 472600 and 478400 and 471500 and 453400 and 442900 and 434600
RS4:11 cells; 0.78125 uM, 0.78125 µM
  inhibition rate: -14%
RS4:11 cells; 1.5625 uM
  raw luminescence reading: 448100 and 455300 and 501800 and 445000 and 424900 and 404900
RS4:11 cells; 3.125 uM
  raw luminescence reading: 365800 and 401400 and 456400 and 498100 and 396600 and 403200
RS4:11 cells; 6.25 uM
  raw luminescence reading: 354100 and 405500 and 450900 and 485900 and 401500 and 412400
RS4:11 cells; 12.5 uM
  raw luminescence reading: 349800 and 390500 and 462000 and 475300 and 407800 and 417800
RS4:11 cells; 25 uM
  raw luminescence reading: 354900 and 371900 and 417300 and 420500 and 396000 and 400300
RS4:11 cells; 50 uM
  raw luminescence reading: 273500 and 288400 and 308900 and 317300 and 306600 and 319600
RS4:11 cells; 50 uM, 50 µM
  inhibition rate: 34% and 30% and 25% and 23% and 26%
RS4:11 cells; 100 uM
  raw luminescence reading: 86770 and 92180 and 107300 and 109400 and 97150 and 101700
RS4:11 cells; 100 uM, 100 µM
  inhibition rate: 79% and 78% and 74% and 77% and 75%
Jurkat cells [1]; [3]
  Q1(%): 90.3% and 89.6% and 90%
  Q1(%)/Q3(%): 12.1534 and 10.7049 and 11.4358
  Q3(%): 7.43% and 8.37% and 7.87%
Jurkat cells [1]; Jurkat, 4 h treatment, JC-1, flow cytometry, n = 3
  ΔΨm (ratio of red over green fluorescence, Q1/Q3): 11.43
Jurkat cells [1]; Jurkat, 24 h treatment (Supplementary Fig. 13)
  Relative ΔΨm by JC-1 fluorescence staining (microscopy): slightly decreased
Jurkat cells [2]; Figure 6b, replicate values
  cell apoptosis(%): 18.83% and 24.52%
Jurkat cells [2]; Jurkat, 24 h, 30 μM
  Proportion of apoptotic cells: 18.83%
